In US10165776B2, “Substituted pyrazolylpyrazole derivative and use of same as herbicide” (KYOYU AGRI CO., LTD., priority 2015, dated 2019):

How the values were obtained:
Digitaria ciliaris = assay: Weed foliar treatment test (Test 4, 4.0 to 5.0 leaf stage); type: in vivo; details: 10 g a.i./10 a; foliar spray at 4.0 to 5.0 leaf stage of Digitaria ciliaris (plant height 10 cm to 15 cm); 20 days at 25° C.
Procedure: (§1) Field soil was filled into a 1/4500 are pot followed by seeding with Digitaria ciliaris and Galinsoga parviflora, covering with soil and cultivating in a glass greenhouse at an average atmospheric temperature of 25° C. Wettable powders of Target Compound (I) shown in Table 1 prepared in compliance with the preparation examples were diluted with water to the prescribed amount of chemical and uniformly sprayed onto the weeds using 100 liters of sprayed water per 10 are when Digitaria ciliaris had grown to the 4.0 to 5.0 leaf stage (plant height: 10 cm to 15 cm). After treating for 20 days in a glass greenhouse at an average atmospheric temperature of 25° C., the herbicidal efficacy thereof was investigated. Evaluation of herbicidal efficacy was carried out in the same manner as the above-mentioned Test Example 1.

Galinsoga parviflora = assay: as above; type: in vivo; details: 10 g a.i./10 a; foliar spray at 4.0 to 5.0 leaf stage of Digitaria ciliaris (plant height 10 cm to 15 cm); 20 days at 25° C.
Procedure: as §1

SMILES	herbicidal efficacy, Digitaria ciliaris (Digitaria ciliaris)	herbicidal efficacy, Galinsoga parviflora (Galinsoga parviflora)
COc1cccc(CC(=O)Nc2c(C#N)cnn2-c2nn3c(c2Cl)CCCC3)c1 [Compound 10]	10 (10: 100%)	10 (10: 100%)
N#Cc1cnn(-c2nn3c(c2Cl)CCCC3)c1NC(=O)Cc1cccc(Cl)c1 [Compound 12]	10 (10: 100%)	10 (10: 100%)
Cc1ccc(CC(=O)Nc2c(C#N)cnn2-c2nn3c(c2Cl)CCCC3)cc1 [Compound 13]	10 (10: 100%)	10 (10: 100%)
COc1ccc(CC(=O)Nc2c(C#N)cnn2-c2nn3c(c2Cl)CCCC3)cc1 [Compound 14]	10 (10: 100%)	10 (10: 100%)
N#Cc1cnn(-c2nn3c(c2Cl)CCCC3)c1NC(=O)Cc1ccc(Cl)cc1 [Compound 16]	10 (10: 100%)	10 (10: 100%)
N#Cc1cnn(-c2nn3c(c2Cl)CCCC3)c1NC(=O)Cc1ccc(C(F)(F)F)cc1 [Compound 17]	10 (10: 100%)	10 (10: 100%)
N#Cc1cnn(-c2nn3c(c2Cl)CCCC3)c1NC(=O)Cc1ccc(Cl)cc1Cl [Compound 18]	10 (10: 100%)	10 (10: 100%)
